Test results published in patent publication US8242275B2, “Bicyclic pyrazole compounds as antibacterial agents” (Janssen Pharmaceutica NV, priority 2005, dated 2012).
≈ marks a conversion by molar mass, not a printed value. Where a name gives a salt, the structure may show the parent alone. Read-outs that look alike come from different tables or passages of the source.

Tests used:
CipR MRSA OC4222 = assay: Resistant strains assay (broth microdilution MIC); assay type: cell-based; settings: Staphylococcus aureus, read-out: MIC, Column G
Text: (§1) Testing protocols followed NCCLS methodology for broth microdilution assays.

S. pneumoniae ATCC49619 = assay: In vitro antibacterial activity (MIC assay), broth microdilution; assay type: cell-based
How it was run: (§2)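 Bacteria at roughly 5×10^5 CFU/mL final were grown 16–24 h at 35° C in wells holding 2-fold serial dilutions (11 points) of compound prepared in 100% DMSO, following NCCLS M7-A5. MIC, in μg/mL, is the concentration that stops visible growth relative to untreated wells.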

E. coli ATCC25922 = assay: as above; assay type: cell-based; settings: Escherichia coli
How it was run: as §2

S. aureus ATCC13709 = assay: as above; assay type: cell-based
How it was run: as §2

MRSA OC2878 = assay: Resistant strains assay (broth microdilution MIC); assay type: cell-based; settings: Staphylococcus aureus; MRSA OC2878; read-out: MIC, Column D
Text: as §1

CipR MRSA OC5273 = assay: Resistant strains assay (broth microdilution MIC); assay type: cell-based; settings: Staphylococcus aureus, read-out: MIC, Column H
Text: as §1

MRSA OC3726 (COL) = assay: Resistant strains assay (broth microdilution MIC); assay type: cell-based; settings: Staphylococcus aureus; MRSA OC3726 (COL); read-out: MIC, Column C
Text: as §1

CipR MRSA OC4159 = assay: Resistant strains assay (broth microdilution MIC); assay type: cell-based; settings: Staphylococcus aureus, read-out: MIC, Column F
Text: as §1

MSSA ATCC13709 (Smith) = assay: Resistant strains assay (broth microdilution MIC); assay type: cell-based; settings: Staphylococcus aureus
Procedure: (§3) Compounds of the present invention were tested for activity against susceptible and resistant bacterial strains in vitro, and activity was compared to known anti-bacterial agents. Testing protocols followed NCCLS methodology for broth microdilution assays. MIC values in μg/mL are presented in Table 3 for the following strains: Column A: MSSA ATCC13709 (Smith); Column B: MSSA ATCC 29213; Column C: MRSA OC3726 (COL); Column D: MRSA OC2878.

MSSA ATCC 29213 = assay: Resistant strains assay (broth microdilution MIC); assay type: cell-based; settings: Staphylococcus aureus, read-out: MIC, Column B
Procedure: as §3

E. coli DNA gyrase = target: T1, E. coli DNA gyrase (Escherichia coli, UniProt P0AES4+P0AES6); assay: DNA gyrase inhibition assay (supercoiling); assay type: biochemical; settings: E. coli DNA gyrase supercoiling, visual inspection of gels; read-out: DNA Gyrase IC50 (converted)
T1 construct: purchased John Innes Enterprises Ltd. (John Innes Centre, UK)
How it was run: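 Agarose-gel (1.0%, ethidium-stained) readout of supercoiled versus relaxed pBR322 after 30 min at 37° C. Each reaction held 250 ng DNA, 0.2 unit enzyme, 1 mM ATP, 4 mM MgCl2, 24 mM KCl in 35 mM Tris-HCl pH 7.5, and compound at 0.5% DMSO final.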

[1] = tested on: E. coli KL-16 (GSC strain 4245); assay: In vitro antibacterial activity (MIC assay), broth microdilution; assay type: cell-based; settings: Escherichia coli
How it was run: as §2

CipR MRSA OC3946 = assay: Resistant strains assay (broth microdilution MIC); assay type: cell-based; settings: Staphylococcus aureus; CipR MRSA OC3946; read-out: MIC, Column E
Procedure: as §3
MIC values in μg/mL are presented in Table 4 for the following strains: Column E: CipR MRSA OC3946; Column F: CipR MRSA OC4159; Column G: CipR MRSA OC4222; Column H: CipR MRSA OC5273.

E. coli topoisomerase IV = target: T2, E. coli topoisomerase IV (Escherichia coli, UniProt P0AFI2+P20083); assay: Topoisomerase IV inhibition assay (relaxation); assay type: biochemical; settings: E. coli topoisomerase IV relaxation, visual inspection of gels; read-out: Topoisomerase IV IC50 (converted)
T2 construct: purchased John Innes Enterprises Ltd. (John Innes Centre, UK)
How it was run: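 Relaxation of 300 ng supercoiled pBR322 by 0.9 unit enzyme in HEPES-KOH pH 7.6 with potassium glutamate, Mg(OAc)2, DTT, tRNA, 2 mM ATP and BSA; final DMSO 0.5%. Reactions ran 45 min at 37° C. Products resolved on 1.0% agarose gels and stained with ethidium bromide.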

[2] = Streptococcus pneumoniae, ATCC49619; read-out: S. pneumoniae ATCC49619 MIC
[3] = obtained with E. coli ATCC25922, read-out: E. coli MIC, data marked (*)
[4] = Staphylococcus aureus, ATCC13709; read-out: S. aureus ATCC13709 MIC

T2 sequence (P0AFI2 whole entry): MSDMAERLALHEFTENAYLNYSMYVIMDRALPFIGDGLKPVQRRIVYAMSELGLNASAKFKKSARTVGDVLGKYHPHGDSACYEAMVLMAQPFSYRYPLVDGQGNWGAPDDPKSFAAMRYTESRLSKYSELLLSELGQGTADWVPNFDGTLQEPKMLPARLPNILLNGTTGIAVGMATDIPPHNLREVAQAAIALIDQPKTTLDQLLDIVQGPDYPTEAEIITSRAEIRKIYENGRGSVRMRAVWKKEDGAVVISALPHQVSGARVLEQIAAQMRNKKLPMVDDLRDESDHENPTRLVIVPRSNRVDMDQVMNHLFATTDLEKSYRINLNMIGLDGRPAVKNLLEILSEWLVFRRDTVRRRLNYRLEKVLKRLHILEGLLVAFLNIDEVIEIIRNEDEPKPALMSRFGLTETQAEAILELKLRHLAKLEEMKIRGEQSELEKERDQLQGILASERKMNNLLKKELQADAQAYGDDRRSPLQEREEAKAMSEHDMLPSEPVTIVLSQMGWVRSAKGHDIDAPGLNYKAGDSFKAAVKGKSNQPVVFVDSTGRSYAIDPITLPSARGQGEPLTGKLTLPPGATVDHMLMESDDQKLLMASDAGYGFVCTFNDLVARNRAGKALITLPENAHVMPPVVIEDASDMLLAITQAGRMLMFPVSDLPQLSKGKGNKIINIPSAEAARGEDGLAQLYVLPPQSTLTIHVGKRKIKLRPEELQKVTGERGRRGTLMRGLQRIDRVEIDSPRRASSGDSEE
T2 sequence (P20083 whole entry): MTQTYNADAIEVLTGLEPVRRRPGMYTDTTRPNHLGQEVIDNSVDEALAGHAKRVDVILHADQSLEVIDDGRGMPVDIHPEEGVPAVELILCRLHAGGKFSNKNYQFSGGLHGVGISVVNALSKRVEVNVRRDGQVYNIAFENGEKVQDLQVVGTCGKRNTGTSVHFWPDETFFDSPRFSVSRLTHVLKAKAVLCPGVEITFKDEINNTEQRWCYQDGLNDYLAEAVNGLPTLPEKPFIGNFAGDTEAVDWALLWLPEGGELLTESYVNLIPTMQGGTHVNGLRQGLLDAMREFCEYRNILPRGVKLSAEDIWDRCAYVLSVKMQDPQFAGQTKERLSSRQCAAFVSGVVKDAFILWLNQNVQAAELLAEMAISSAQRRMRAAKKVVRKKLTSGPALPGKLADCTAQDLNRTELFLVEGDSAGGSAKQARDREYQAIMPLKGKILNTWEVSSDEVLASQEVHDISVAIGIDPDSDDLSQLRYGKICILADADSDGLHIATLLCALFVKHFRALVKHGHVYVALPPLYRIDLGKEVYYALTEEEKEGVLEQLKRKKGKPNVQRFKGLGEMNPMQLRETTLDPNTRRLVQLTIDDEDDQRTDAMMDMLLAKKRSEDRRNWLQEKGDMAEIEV
T1 sequence (P0AES4 whole entry, one chain of several): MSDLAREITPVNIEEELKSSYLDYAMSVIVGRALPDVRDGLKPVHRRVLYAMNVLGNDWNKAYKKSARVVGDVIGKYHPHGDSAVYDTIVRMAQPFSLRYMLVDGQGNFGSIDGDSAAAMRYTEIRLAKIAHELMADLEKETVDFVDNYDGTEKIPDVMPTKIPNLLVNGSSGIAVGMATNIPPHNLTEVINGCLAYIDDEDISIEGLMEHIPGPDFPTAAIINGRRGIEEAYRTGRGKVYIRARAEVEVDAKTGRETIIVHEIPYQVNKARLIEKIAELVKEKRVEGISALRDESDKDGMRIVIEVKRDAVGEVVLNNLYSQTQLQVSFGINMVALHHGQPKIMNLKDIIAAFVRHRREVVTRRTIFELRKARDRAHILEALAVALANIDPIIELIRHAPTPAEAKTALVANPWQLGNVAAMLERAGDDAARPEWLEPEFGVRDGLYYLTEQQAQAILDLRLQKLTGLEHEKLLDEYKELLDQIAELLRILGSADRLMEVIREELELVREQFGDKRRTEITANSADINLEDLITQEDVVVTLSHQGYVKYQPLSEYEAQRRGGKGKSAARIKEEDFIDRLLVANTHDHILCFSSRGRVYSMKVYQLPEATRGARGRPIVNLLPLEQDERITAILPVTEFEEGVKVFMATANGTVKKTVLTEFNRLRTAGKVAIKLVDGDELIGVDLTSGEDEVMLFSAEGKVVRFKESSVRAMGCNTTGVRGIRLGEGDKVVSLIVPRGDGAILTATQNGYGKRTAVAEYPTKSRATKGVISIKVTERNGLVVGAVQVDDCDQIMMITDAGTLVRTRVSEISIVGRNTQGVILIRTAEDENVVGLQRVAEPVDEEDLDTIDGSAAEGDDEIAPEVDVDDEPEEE

| SMILES | MIC (CipR MRSA OC4222; CipR MRSA OC4222) | MIC (S. pneumoniae ATCC49619; [2]) | MIC (E. coli ATCC25922; [3]) | MIC (S. aureus ATCC13709; [4]) | further results |
| --- | --- | --- | --- | --- | --- |
| COc1ccc2nccc(-n3cc4c(n3)CCC(NCc3cc5c(cc3F)SCCN5)C4)c2n1 (centres unmarked) [Example 107, (7-Fluoro-3,4-dihydro-2H-benzo[1,4]thiazin-6-ylmethyl)-[2-(6-methoxy-[1,5]naphthyridin-4-yl)-4,5,6,7-tetrahydro-2H-indazol-5-yl]-amine] | 0.5 µg/mL (≈ 1.05 µM) | 2 µg/mL (≈ 4.2 µM) | 8 µg/mL (≈ 16.8 µM) | 0.25 µg/mL (≈ 0.525 µM) |  |
| CCOC(=O)c1cc2c(cc1C(=O)NC1CCc3nn(-c4ccnc5ccc(OC)nc45)cc3C1)NC(=O)CS2 (centres unmarked) [Example 137, 6-[2-(6-Methoxy-[1,5]naphthyridin-4-yl)-4,5,6,7-tetrahydro-2H-indazol-5-ylcarbamoyl]-3-oxo-3,4-dihydro-2H-benzo[1,4]thiazine-7-carboxylic acid ethyl ester] | 0.5 µg/mL (≈ 0.895 µM) | > 16 µg/mL | > 16 µg/mL | 0.5 µg/mL (≈ 0.895 µM) |  |
| CCOC(=O)c1cc2c(cc1C(=O)NC1CCc3nn(-c4ccnc5ccc(OC)cc45)cc3C1)NC(=O)CS2 (centres unmarked) [Example 135, 6-[2-(6-Methoxy-quinolin-4-yl)-4,5,6,7-tetrahydro-2H-indazol-5-ylcarbamoyl]-3-oxo-3,4-dihydro-2H-benzo[1,4]thiazine-7-carboxylic acid ethyl ester] | 2 µg/mL (≈ 3.59 µM) | > 16 µg/mL | > 16 µg/mL | 2 µg/mL (≈ 3.59 µM) |  |
| COc1ccc2nccc(-n3cc4c(n3)CCC(NC(=O)c3cc5c(cc3C)SCC(=O)N5)C4)c2n1 (centres unmarked) [Example 133, 7-Methyl-3-oxo-3,4-dihydro-2H-benzo[1,4]thiazine-6-carboxylic acid [2-(6-methoxy-[1,5]naphthyridin-4-yl)-4,5,6,7-tetrahydro-2H-indazol-5-yl]-amide] | 0.25 µg/mL (≈ 0.499 µM) | > 16 µg/mL | > 16 µg/mL | 0.25 µg/mL (≈ 0.499 µM) |  |
| COc1ccc2nccc(-n3cc4c(n3)CCC(NC(=O)c3cc5c(cc3OC)SCC(=O)N5)C4)c2n1 (centres unmarked) [Example 130, 7-Methoxy-3-oxo-3,4-dihydro-2H-benzo[1,4]thiazine-6-carboxylic acid [2-(6-methoxy-[1,5]naphthyridin-4-yl)-4,5,6,7-tetrahydro-2H-indazol-5-yl]-amide] | 2 µg/mL (≈ 3.87 µM) | 16 µg/mL (≈ 31 µM) | > 16 µg/mL | 2 µg/mL (≈ 3.87 µM) |  |
| COc1ccc2nccc(-n3cc4c(n3)CCC(NCCOc3cc(F)cc(F)c3)C4)c2n1 (centres unmarked) [Example 134, [2-(3,5-Difluoro-phenoxy)-ethyl]-[2-(6-methoxy-[1,5]naphthyridin-4-yl)-4,5,6,7-tetrahydro-2H-indazol-5-yl]-amine] | 0.5 µg/mL (≈ 1.11 µM) | 4 µg/mL (≈ 8.86 µM) | > 16 µg/mL | 1 µg/mL (≈ 2.21 µM) |  |
| COc1ccc2nccc(-n3cc4c(n3)CCC(NC(=O)c3ccc5c(c3)NC(=O)C(C)(C)S5)C4)c2c1 (centres unmarked) [Example 129, 2,2-Dimethyl-3-oxo-3,4-dihydro-2H-benzo[1,4]thiazine-6-carboxylic acid [2-(6-methoxy-quinolin-4-yl)-4,5,6,7-tetrahydro-2H-indazol-5-yl]-amide] | 1 µg/mL (≈ 1.95 µM) | 4 µg/mL (≈ 7.79 µM) | > 16 µg/mL | 1 µg/mL (≈ 1.95 µM) |  |
| COc1ccc2nccc(-n3ncc4c3CCC(NC(=O)c3cc5c(cc3C)SCC(=O)N5)C4)c2c1 (centres unmarked) [Example 132, 7-Methyl-3-oxo-3,4-dihydro-2H-benzo[1,4]thiazine-6-carboxylic acid [1-(6-methoxy-quinolin-4-yl)-4,5,6,7-tetrahydro-1H-indazol-5-yl]-amide] | 2 µg/mL (≈ 4 µM) | > 16 µg/mL | > 16 µg/mL | 2 µg/mL (≈ 4 µM) |  |
| COc1ccc2nccc(-n3cc4c(n3)CCC(NC(=O)c3cc5c(cc3C(=O)O)SCC(=O)N5)C4)c2c1 (centres unmarked) [Example 136, 6-[2-(6-Methoxy-quinolin-4-yl)-4,5,6,7-tetrahydro-2H-indazol-5-ylcarbamoyl]-3-oxo-3,4-dihydro-2H-benzo[1,4]thiazine-7-carboxylic acid, potassium salt] |  |  |  |  | MIC (CipR MRSA OC4222; MRSA): 2 µg/mL; MIC (S. pneumoniae ATCC49619; Streptococcus pneumoniae, ATCC49619, read-out: S. pneumoniae ATCC49619 MIC): > 16 µg/mL; MIC (E. coli ATCC25922; ATCC25922, read-out: E. coli MIC, data marked (*)): > 16 µg/mL; MIC (S. aureus ATCC13709; Staphylococcus aureus, ATCC13709, read-out: S. aureus ATCC13709 MIC): 1 µg/mL |
| COc1ccc2nccc(-n3cc4c(n3)CCC(NC(=O)c3cc5c(cc3C(=O)O)SCC(=O)N5)C4)c2n1 (centres unmarked) [Example 138, 6-[2-(6-Methoxy-[1,5]naphthyridin-4-yl)-4,5,6,7-tetrahydro-2H-indazol-5-ylcarbamoyl]-3-oxo-3,4-dihydro-2H-benzo[1,4]thiazine-7-carboxylic acid] | 0.5 µg/mL (≈ 0.942 µM) | 16 µg/mL (≈ 30.2 µM) | > 16 µg/mL | 0.5 µg/mL (≈ 0.942 µM) |  |
| COc1ccc2nccc(-n3cc4c(n3)CCC(NC/C=C/c3ccccc3)C4)c2n1 (centres unmarked) [Example 46, [2-(6-Methoxy-[1,5]naphthyridin-4-yl)-4,5,6,7-tetrahydro-2H-indazol-5-yl]-(3-phenyl-allyl)-amine] | 0.062 µg/mL (≈ 0.151 µM) | < 0.125 µg/mL |  | 0.06 µg/mL (≈ 0.146 µM) | MIC (MRSA OC2878): 0.125 µg/mL (≈ 0.304 µM); MIC (CipR MRSA OC5273): 0.125 µg/mL (≈ 0.304 µM); MIC (MRSA OC3726 (COL)): 0.25 µg/mL (≈ 0.608 µM); MIC (CipR MRSA OC4159): 0.062 µg/mL (≈ 0.151 µM); MIC (MSSA ATCC13709 (Smith)): 0.062 µg/mL (≈ 0.151 µM); MIC (MSSA ATCC 29213): 8 µg/mL (≈ 19.4 µM); IC50 (E. coli DNA gyrase): 292 nM; MIC [1]: 16 µg/mL (≈ 38.9 µM); MIC (CipR MRSA OC3946): 0.062 µg/mL (≈ 0.151 µM); IC50 (E. coli topoisomerase IV): < 36.5 nM |
